According to ChEMBL document CHEMBL5696442, “Discovery of type II inhibitors of TGFβ-activated kinase 1 (TAK1) and mitogen-activated protein kinase kinase kinase kinase 2 (MAP4K2)” (J Med Chem, 2015):

Assays:
Assay type in all cases: cell-based
[1] = target: T1, Serine/threonine-protein kinase STK11 (Homo sapiens) (UniProt Q15831); assay: Inhibition of LKB1 Lys2 labeling site in human A-375 cells at 0.5 uM by KiNativ Profiling analysis relative to control
T1 sequence (whole entry): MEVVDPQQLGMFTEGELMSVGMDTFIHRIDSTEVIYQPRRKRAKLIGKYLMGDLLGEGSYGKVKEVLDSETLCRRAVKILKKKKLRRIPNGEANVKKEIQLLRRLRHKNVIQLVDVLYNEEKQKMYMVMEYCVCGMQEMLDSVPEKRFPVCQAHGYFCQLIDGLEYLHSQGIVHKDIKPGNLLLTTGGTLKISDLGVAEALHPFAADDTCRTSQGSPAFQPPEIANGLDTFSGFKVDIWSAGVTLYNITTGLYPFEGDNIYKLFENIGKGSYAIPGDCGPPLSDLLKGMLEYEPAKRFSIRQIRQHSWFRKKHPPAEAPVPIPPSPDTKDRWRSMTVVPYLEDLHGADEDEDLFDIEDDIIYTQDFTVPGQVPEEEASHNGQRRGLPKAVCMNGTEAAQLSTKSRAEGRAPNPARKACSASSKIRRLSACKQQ

[2] = target: Serine/threonine-protein kinase MARK1 (Homo sapiens) (UniProt Q9P0L2); assay: Inhibition of MARK1 Lys2 labeling site in human A-375 cells at 5 uM by KiNativ Profiling analysis relative to control
Chain of Serine/threonine-protein kinase MARK1 (Homo sapiens) (Q9P0L2 whole entry, looked up): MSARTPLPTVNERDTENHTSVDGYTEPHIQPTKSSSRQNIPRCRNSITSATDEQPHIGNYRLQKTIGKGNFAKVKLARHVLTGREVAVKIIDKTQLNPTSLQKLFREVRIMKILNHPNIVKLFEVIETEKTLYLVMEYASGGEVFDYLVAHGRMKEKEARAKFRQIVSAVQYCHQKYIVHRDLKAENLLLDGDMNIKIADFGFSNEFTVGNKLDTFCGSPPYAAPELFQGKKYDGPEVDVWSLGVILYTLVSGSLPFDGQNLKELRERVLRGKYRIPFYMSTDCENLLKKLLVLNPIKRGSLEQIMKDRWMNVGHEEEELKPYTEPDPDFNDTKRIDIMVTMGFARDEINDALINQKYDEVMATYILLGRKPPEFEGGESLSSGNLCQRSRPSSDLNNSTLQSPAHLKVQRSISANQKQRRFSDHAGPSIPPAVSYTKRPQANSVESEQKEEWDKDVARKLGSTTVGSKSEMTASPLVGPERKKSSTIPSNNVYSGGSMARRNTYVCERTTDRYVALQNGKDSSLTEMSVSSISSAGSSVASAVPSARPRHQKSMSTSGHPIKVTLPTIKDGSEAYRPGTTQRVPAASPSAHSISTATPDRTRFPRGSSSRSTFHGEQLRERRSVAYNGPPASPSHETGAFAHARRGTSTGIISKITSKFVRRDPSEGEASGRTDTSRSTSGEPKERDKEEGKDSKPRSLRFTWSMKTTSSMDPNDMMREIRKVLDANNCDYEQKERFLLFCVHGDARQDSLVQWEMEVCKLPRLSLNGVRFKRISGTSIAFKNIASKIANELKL

[3] = target: Tyrosine-protein kinase Fyn (Homo sapiens) (UniProt P06241); assay: Inhibition of FYN ACT labeling site in human A-375 cells at 0.05 uM by KiNativ Profiling analysis relative to control
Chain of Tyrosine-protein kinase Fyn (Homo sapiens) (P06241 2-537 limits assumed): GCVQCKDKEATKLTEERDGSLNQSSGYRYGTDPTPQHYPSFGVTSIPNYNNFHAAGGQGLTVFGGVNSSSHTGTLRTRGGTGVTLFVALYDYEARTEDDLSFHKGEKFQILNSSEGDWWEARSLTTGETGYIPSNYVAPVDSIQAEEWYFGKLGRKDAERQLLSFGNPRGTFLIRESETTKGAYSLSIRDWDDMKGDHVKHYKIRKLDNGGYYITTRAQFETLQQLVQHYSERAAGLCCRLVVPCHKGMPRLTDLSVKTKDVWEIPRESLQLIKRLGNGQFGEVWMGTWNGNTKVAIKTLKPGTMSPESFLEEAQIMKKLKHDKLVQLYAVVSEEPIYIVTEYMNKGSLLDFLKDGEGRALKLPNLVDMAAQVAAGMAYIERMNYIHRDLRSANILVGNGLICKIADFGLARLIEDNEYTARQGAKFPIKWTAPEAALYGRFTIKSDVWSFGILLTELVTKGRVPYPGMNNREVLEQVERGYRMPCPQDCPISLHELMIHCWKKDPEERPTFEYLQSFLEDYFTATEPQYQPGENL

[4] = target: T2, Serine/threonine-protein kinase Nek1 (Homo sapiens) (UniProt Q96PY6); assay: Inhibition of NEK1 Lys2 labeling site in human A-375 cells at 5 uM by KiNativ Profiling analysis relative to control
T2 sequence (whole entry): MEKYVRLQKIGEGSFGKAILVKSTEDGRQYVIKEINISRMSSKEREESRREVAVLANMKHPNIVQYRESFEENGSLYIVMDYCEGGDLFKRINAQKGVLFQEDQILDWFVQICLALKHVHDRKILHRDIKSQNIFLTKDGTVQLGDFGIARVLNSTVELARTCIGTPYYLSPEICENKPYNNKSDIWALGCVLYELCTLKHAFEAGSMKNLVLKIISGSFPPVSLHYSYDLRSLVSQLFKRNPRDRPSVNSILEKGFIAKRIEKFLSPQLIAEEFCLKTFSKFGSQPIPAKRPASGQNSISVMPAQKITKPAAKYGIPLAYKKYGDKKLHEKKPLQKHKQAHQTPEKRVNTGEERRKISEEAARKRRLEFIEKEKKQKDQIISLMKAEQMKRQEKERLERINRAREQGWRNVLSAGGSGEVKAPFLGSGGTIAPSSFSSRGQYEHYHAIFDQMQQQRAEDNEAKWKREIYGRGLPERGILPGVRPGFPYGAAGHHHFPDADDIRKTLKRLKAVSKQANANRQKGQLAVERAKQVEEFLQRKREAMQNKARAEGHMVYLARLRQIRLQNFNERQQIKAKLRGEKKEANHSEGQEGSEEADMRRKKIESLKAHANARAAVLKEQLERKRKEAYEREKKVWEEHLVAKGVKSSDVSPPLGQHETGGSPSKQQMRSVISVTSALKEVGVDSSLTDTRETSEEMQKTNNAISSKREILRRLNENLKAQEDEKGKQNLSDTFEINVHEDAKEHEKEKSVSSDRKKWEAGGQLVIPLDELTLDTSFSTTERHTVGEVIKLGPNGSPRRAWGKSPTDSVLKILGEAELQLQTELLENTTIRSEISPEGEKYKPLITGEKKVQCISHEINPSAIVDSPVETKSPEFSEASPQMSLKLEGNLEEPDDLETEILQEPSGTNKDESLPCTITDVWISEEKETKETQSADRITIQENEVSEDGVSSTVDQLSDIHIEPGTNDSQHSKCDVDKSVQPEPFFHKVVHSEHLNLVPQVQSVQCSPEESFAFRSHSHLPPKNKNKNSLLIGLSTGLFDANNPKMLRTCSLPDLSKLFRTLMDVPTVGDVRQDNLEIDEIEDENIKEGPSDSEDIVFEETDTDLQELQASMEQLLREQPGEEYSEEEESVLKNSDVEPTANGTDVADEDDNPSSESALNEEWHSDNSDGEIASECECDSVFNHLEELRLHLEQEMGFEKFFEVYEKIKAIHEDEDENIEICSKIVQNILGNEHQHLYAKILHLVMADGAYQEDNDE

[5] = target: T3, PAN2-PAN3 deadenylation complex subunit PAN3 (Homo sapiens) (UniProt Q58A45); assay: Inhibition of PAN3 ATP labeling site in human A-375 cells at 0.05 uM by KiNativ Profiling analysis relative to control
T3 sequence (whole entry): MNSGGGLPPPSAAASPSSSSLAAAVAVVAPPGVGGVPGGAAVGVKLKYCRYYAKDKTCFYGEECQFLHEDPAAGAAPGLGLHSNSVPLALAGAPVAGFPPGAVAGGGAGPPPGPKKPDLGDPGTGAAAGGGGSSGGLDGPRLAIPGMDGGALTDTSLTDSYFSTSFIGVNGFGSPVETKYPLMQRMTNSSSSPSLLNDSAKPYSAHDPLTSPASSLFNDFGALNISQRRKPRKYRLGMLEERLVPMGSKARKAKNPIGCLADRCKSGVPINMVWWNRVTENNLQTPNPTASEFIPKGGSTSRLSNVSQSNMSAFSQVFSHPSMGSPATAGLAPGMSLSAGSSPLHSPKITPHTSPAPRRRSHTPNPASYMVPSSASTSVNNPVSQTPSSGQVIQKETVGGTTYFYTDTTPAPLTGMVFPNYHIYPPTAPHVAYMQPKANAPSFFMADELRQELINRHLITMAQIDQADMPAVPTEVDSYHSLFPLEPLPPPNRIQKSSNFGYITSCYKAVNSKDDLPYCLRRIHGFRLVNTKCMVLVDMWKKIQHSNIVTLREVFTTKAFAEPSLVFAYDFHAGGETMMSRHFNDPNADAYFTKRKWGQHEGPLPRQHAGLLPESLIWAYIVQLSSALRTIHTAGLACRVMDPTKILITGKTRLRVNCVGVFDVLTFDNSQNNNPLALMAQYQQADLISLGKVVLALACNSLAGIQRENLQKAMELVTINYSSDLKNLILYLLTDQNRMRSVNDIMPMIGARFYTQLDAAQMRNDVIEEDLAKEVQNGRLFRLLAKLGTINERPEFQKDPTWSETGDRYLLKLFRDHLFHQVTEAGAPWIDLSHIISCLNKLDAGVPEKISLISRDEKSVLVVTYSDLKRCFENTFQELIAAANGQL

[6] = target: Serine/threonine-protein kinase Nek7 (Homo sapiens) (UniProt Q8TDX7); assay: Inhibition of NEK7 Lys2 labeling site harbouring DIKPANVFITATGVVK in human Huh-7 cells at 1 uM by KiNativ Profiling analysis relative to control
Chain of Serine/threonine-protein kinase Nek7 (Homo sapiens) (Q8TDX7 whole entry, looked up): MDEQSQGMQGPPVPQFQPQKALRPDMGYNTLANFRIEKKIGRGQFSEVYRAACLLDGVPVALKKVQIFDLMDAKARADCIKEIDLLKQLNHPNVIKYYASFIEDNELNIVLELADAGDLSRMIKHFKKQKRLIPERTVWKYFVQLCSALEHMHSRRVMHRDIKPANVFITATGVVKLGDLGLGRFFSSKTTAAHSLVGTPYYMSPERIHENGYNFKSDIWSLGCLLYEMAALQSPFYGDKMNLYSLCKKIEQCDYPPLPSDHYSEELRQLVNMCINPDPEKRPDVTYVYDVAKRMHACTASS

CCN1CCN(Cc2ccc(NC(=O)c3ccc(C)c(/C=C/c4cnc5[nH]ccc5c4OC)c3)cc2C(F)(F)F)CC1
inhibition [1]: 32.2% | inhibition [2]: 13% | inhibition [3]: 38.9%

CCN1CCN(Cc2ccc(NC(=O)c3ccc(C)c(Oc4ccnc5[nH]ccc45)c3)cc2C(F)(F)F)CC1
inhibition [4]: -7.1% | inhibition [5]: 7%

CNc1cc(Oc2cc(C(=O)Nc3cc(N4CCN(C)CC4)cc(C(F)(F)F)c3)ccc2C)ncn1
inhibition [6]: -2.7%
